According to patent publication US7476675B2, “Quinolinone derivatives and uses thereof” (Roche Palo Alto LLC, priority 2003, dated 2009):
Where a name gives a salt, the structure may show the parent alone.

Columns and labels:
[1] = target: T1, recombinant human 5-HT6 receptor (Homo sapiens, UniProt P50406); test: Radioligand binding studies: competition for [3H]LSD binding in membranes of HEK293 cells expressing the receptor; details: [3H]LSD (5 nM), HEK293 cell membranes, 60 min at 37° C., pH 7.4; read-out: pKi for 5-HT6 (converted)
T1 construct: expressed in transfected cells
T1 sequence (P50406 whole entry): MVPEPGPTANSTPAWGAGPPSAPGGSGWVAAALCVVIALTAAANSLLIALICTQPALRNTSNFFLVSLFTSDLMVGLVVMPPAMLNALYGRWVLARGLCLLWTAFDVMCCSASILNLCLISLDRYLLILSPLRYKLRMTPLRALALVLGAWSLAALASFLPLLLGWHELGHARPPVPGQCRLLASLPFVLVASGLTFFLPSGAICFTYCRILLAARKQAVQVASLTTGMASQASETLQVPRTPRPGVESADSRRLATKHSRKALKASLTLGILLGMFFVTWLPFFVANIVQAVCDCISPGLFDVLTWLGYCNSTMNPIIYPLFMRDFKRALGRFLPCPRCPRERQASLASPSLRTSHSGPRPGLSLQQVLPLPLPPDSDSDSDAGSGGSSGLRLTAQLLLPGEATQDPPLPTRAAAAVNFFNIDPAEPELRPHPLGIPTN
Experimental: The binding activity of compounds of this invention in vitro was determined as follows. Duplicate determinations of ligand affinity are made by competing for binding of [^3H]LSD in cell membranes derived from HEK293 cells stably expressing recombinant human 5-HT6 receptor. This cell line was prepared by the method described by Monsma et al., Molecular Pharmacology, Vol. 43 pp. 320-327 (1993).
All determinations were made in assay buffer containing 50 mM Tris-HCl, 10 mM MgSO4, 0.5 mM EDTA, 1 mM ascorbic acid, pH 7.4 at 37° C., in a 250 microliter reaction volume. Assay tubes containing [^3H] LSD (5 nM), competing ligand, and membrane were incubated in a shaking water bath for 60 min. at 37° C., filtered onto Packard GF-B plates (pre-soaked with 0.3% PEI) using a Packard 96 well cell harvester and washed 3 times in ice cold 50 mM Tris-HCl. Bound [^3H] LSD was determined as radioactive counts per minute using Packard TopCount.
Displacement of [^3H]LSD from the binding sites was quantified by fitting concentration-binding data to a 4-parameter logistic equation:
[formula] where Hill is the Hill slope, [ligand] is the concentration of competing radioligand and IC50 is the concentration of radioligand producing half-maximal specific binding of radioligand. The specific binding window is the difference between the Bmax and the basal parameters.

Row | melting point | Ki [1] | Compound
1 | 149 to 150 °C | – | O=C1CCCc2ccccc2N1Cc1cccc(N2CCNCC2)c1 (as salt: maleate) [Compound 17, 1-(3-Piperazin-1-yl-benzyl)-1,3,4,5-tetrahydrobenzo[b]azepin-2-one]
2 | – | ~1 nM | COc1cc(CN2C(=O)CCc3ccccc32)cc(N2CCNCC2)c1 [Compound 4, 1-(3-Methoxy-5-piperazin-1-yl-benzyl)-3,4-dihydro-1H-quinolin-2-one]
